In publication PMC5111741 (The European Journal of Neuroscience, 2016):

Biological target: T1, rat prestin labelled with GFP (Rattus norvegicus, UniProt Q9EPH0)
T1 sequence (Q9EPH0 1-744): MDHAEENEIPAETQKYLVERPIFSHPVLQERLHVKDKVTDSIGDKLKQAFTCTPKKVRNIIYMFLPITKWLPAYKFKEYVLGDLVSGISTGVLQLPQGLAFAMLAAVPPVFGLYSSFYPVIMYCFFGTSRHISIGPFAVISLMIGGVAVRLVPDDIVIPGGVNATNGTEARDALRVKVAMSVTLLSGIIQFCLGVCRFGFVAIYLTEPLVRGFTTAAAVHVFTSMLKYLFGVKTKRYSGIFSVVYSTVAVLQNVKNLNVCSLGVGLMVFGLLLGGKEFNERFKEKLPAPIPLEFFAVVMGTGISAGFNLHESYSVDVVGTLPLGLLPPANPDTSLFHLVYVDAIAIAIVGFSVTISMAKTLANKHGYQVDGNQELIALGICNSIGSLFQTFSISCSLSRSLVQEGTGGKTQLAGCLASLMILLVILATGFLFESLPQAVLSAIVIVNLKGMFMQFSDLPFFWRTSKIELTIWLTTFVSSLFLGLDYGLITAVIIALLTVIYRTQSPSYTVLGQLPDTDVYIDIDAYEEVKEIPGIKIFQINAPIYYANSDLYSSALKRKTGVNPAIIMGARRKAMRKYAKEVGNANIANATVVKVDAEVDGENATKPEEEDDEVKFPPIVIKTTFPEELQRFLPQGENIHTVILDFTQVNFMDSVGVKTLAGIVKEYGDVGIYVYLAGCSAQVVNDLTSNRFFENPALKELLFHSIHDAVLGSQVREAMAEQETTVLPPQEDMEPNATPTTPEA
Test: whole-cell patch clamp of transfected HEK […] cells, nonlinear capacitance
Assay type: cell-based
Conditions: 500 μM extracellular 9-AC; intracellular 135 mM CsCl; pH 7.2; 21.5 °C

- Q max reduction at 500 μM: 59 ± 19%
SMILES: O=C(O)c1c2ccccc2cc2ccccc12 [9‐anthracenecarboxylic acid]
